Tested on: P12-Ichikawa
Test: cell viability relative to DMSO control; higher = less cytotoxic
Conditions: 48 h
Outline: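 Viability is a per-plate percentage relative to DMSO wells, with cell-free wells as background. CellTiter-Glo One luminescence was read after 48 h at 37°C on 1536-well plates (5 μl) of NOMO1 or SEM (500 cells/well) or P12-Ichikawa (1000 cells/well) leukemia cells. The cells had been adapted for at least four passages in each medium and pin-dosed with library compounds in DMSO from 47 μM to 0.79 nM in 11 threefold steps.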

[1] = HPLM + 10% dialyzed FBS, 0.000781 µM
[2] = HPLM + 10% dialyzed FBS, 0.00234 µM
[3] = HPLM + 10% dialyzed FBS, 0.00702 µM
[4] = HPLM + 10% dialyzed FBS, 0.0211 µM
[5] = HPLM + 10% dialyzed FBS, 0.0632 µM
[6] = HPLM + 10% dialyzed FBS, 0.19 µM
[7] = HPLM + 10% dialyzed FBS, 0.569 µM
[8] = HPLM + 10% dialyzed FBS, 1.71 µM
[9] = HPLM + 10% dialyzed FBS, 5.12 µM
[10] = HPLM + 10% dialyzed FBS, 15.4 µM
[11] = HPLM + 10% dialyzed FBS, 46.1 µM
[12] = RPMI 5 mM glucose + 10% FBS, 0.000781 µM
[13] = RPMI 5 mM glucose + 10% FBS, 0.00234 µM
[14] = RPMI 5 mM glucose + 10% FBS, 0.00702 µM
[15] = RPMI 5 mM glucose + 10% FBS, 0.0211 µM
[16] = RPMI 5 mM glucose + 10% FBS, 0.0632 µM
[17] = RPMI 5 mM glucose + 10% FBS, 0.19 µM
[18] = RPMI 5 mM glucose + 10% FBS, 0.569 µM
[19] = RPMI 5 mM glucose + 10% FBS, 1.71 µM
[20] = RPMI 5 mM glucose + 10% FBS, 5.12 µM
[21] = RPMI 5 mM glucose + 10% FBS, 15.4 µM
[22] = RPMI 5 mM glucose + 10% FBS, 46.1 µM
[23] = RPMI 5 mM glucose + 10% dialyzed FBS, 0.000781 µM
[24] = RPMI 5 mM glucose + 10% dialyzed FBS, 0.00234 µM
[25] = RPMI 5 mM glucose + 10% dialyzed FBS, 0.00702 µM
[26] = RPMI 5 mM glucose + 10% dialyzed FBS, 0.0211 µM
[27] = RPMI 5 mM glucose + 10% dialyzed FBS, 0.0632 µM
[28] = RPMI 5 mM glucose + 10% dialyzed FBS, 0.19 µM
[29] = RPMI 5 mM glucose + 10% dialyzed FBS, 0.569 µM
[30] = RPMI 5 mM glucose + 10% dialyzed FBS, 1.71 µM
[31] = RPMI 5 mM glucose + 10% dialyzed FBS, 5.12 µM
[32] = RPMI 5 mM glucose + 10% dialyzed FBS, 15.4 µM
[33] = RPMI 5 mM glucose + 10% dialyzed FBS, 46.1 µM

SMILES | cell viability [1] | cell viability [2] | cell viability [3] | cell viability [4] | cell viability [5] | cell viability [6] | cell viability [7] | cell viability [8] | cell viability [9] | cell viability [10] | cell viability [11] | cell viability [12] | cell viability [13] | cell viability [14] | cell viability [15] | cell viability [16] | cell viability [17] | cell viability [18] | cell viability [19] | cell viability [20] | cell viability [21] | cell viability [22] | cell viability [23] | cell viability [24] | cell viability [25] | cell viability [26] | cell viability [27] | cell viability [28] | cell viability [29] | cell viability [30] | cell viability [31] | cell viability [32] | cell viability [33]
Nc1ncnc2c1c(-c1cccc(OCc3ccccc3)c1)cn2C1CC(CN2CCCC2)C1 (stereo not drawn) | 116% | 128% | 120% | 130% | 134% | 128% | 133% | 124% | 134% | 121% | 62.4% | – | – | – | – | – | – | – | – | – | – | – | – | – | – | – | – | – | – | – | – | – | –
CCN(c1ccccc1)c1cc(NC)[n+](C)c(C)n1 | 108% | 111% | 108% | 106% | 111% | 114% | 107% | 107% | 119% | 102% | 101% | 112% | 114% | 120% | 114% | 118% | 106% | 114% | 105% | 108% | 109% | 98.9% | 114% | 109% | 112% | 116% | 111% | 118% | 117% | 117% | 111% | 104% | 106%
CC1(C)C(N(O)C(=O)Nc2ccc(Cl)cc2)N(c2ccc(Cl)cc2)C(=O)N1CC(=O)N/N=C/C=C/c1ccc([N+](=O)[O-])o1 (stereo not drawn) | 112% | 109% | 111% | 113% | 115% | 104% | 105% | 103% | 99.4% | 103% | 65.6% | 108% | 105% | 105% | 110% | 113% | 107% | 110% | 106% | 102% | 100% | 52.4% | 115% | 104% | 115% | 111% | 109% | 113% | 104% | 103% | 103% | 91.3% | 49%
COc1cccc2c1CCCC2CCCN1CCN(C2CCCCC2)CC1 (stereo not drawn) | 104% | 110% | 97.7% | 112% | 106% | 113% | 111% | 110% | 109% | 103% | 81.5% | 111% | 99.9% | 117% | 114% | 127% | 119% | 116% | 122% | 114% | 99.5% | 62.9% | 95.7% | 102% | 114% | 111% | 116% | 110% | 111% | 103% | 105% | 93.4% | 66.2%
O=C(/C=C/c1ccc(O)cc1)c1ccc(O)cc1O | 108% | 98.4% | 95% | 109% | 106% | 104% | 103% | 95.9% | 99.6% | 87.8% | 43.1% | 108% | 103% | 110% | 105% | 111% | 108% | 98.3% | 98.5% | 107% | 65.9% | 11.7% | 105% | 101% | 109% | 106% | 119% | 113% | 104% | 97.3% | 95.5% | 41.8% | 9.51%
CC/1=C(/N2[C@H](SC1)[C@H](NC(=O)C(N)C3=CC=CC=C3)C2=O)C(O)=O (stereo partly drawn) | 119% | 122% | 129% | 133% | 136% | 135% | 133% | 136% | 144% | 136% | 138% | – | – | – | – | – | – | – | – | – | – | – | – | – | – | – | – | – | – | – | – | – | –
COc1ncc(-c2ccc3c(Nc4cc(Oc5cc(F)cc(F)c5)cc(C(=O)O)c4)c([S+](=O)([O-])NC4CC4)cnc3c2)c(OC)n1 | 94.1% | 95.9% | 92.3% | 91.9% | 91.5% | 94.2% | 93.3% | 91.7% | 87.9% | 78.6% | 82.3% | 84% | 87.8% | 88.1% | 93.1% | 97.9% | 84.2% | 82.2% | 83.1% | 79.6% | 75.3% | 76.5% | 91.1% | 43% | 87.7% | 89.4% | 92.7% | 91% | 91.3% | 88.4% | 84.6% | 82.8% | 81.8%
C1CCN2C[C@H]3C[C@H](\C=C/4CCCN[C@@H]34)[C@H]2C1 | 105% | 108% | 99.3% | 103% | 104% | 110% | 110% | 115% | 111% | 108% | 11.1% | 110% | 115% | 121% | 127% | 117% | 123% | 122% | 116% | 115% | 134% | 20.8% | 113% | 104% | 101% | 112% | 112% | 109% | 108% | 97.6% | 112% | 108% | 19.2%
CNC(=O)[C@H](CC/1=C/N=C\2/C=C\C\C=C12)NC(=O)[C@H](CC(C)C)CC(=O)NO | 116% | 108% | 103% | 99.5% | 116% | 111% | 116% | 105% | 108% | 30.9% | 29.8% | 99.5% | 107% | 98% | 102% | 108% | 108% | 113% | 106% | 97.9% | 28.4% | 33.3% | 105% | 107% | 107% | 112% | 115% | 114% | 114% | 105% | 107% | 24.7% | 32.1%
